Laboratory results taken from US20160235727A1, “NOVEL PYRROLIDINE DERIVED BETA 3 ADRENERGIC RECEPTOR AGONISTS” (Merck Sharp & Dohme Corp., priority 2013, published 2016).

Target: T1, human β3-AR (Homo sapiens, UniProt P13945)
T1 construct: expressed in transfected cells; host or cells: CHO (Chinese hamster ovary) cells, stably transfected
Test: cAMP functional agonist assay (LANCE TR-FRET) in CHO cells expressing cloned human β3-AR
Format: cell-based
Details: for EC50: CHO cells stably expressing cloned human β3-adrenoceptor, cAMP release, read-out: Human β3-AR Agonism EC50; for Human β3-AR Agonist Activity (%): percent maximum activation relative to isoproterenol; for Fold drop in potency vs. 2-chloropyridine analog: EC50 of comparative example divided by EC50 of corresponding 2-chloropyridine compound

T1 sequence (P13945 whole entry): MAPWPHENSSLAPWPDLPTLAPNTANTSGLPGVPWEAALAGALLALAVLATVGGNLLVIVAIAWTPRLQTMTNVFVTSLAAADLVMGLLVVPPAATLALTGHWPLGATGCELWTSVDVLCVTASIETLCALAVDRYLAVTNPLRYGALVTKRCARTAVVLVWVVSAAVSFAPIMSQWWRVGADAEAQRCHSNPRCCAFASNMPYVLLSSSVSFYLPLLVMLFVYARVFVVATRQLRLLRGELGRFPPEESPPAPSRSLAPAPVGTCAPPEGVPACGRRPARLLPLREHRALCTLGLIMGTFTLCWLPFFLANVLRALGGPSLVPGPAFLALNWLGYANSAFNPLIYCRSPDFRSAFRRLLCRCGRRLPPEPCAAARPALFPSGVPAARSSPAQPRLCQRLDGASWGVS

SMILES | EC50 | Human β3-AR Agonist Activity (%) | Fold drop in potency vs. 2-chloropyridine analog
COc1ncccc1CN(C)C(=O)c1ccc(C[C@@H]2CC[C@H]([C@H](O)c3ccc(Cl)nc3)N2)cc1 [Example 25-A, 4-(((2S,5R)-5-((R)-(6-chloropyridin-3-yl)(hydroxy)methyl)pyrrolidin-2-yl)methyl)-N-((2-methoxypyridin-3-yl)methyl)-N-methylbenzamide] | 18 nM | 98% | 
COCc1cc(CN(C)C(=O)c2ccc(C[C@@H]3CC[C@H]([C@H](O)c4ccccc4)N3)cc2)n[nH]1 [Example 9-B, 4-(((2S,5R)-5-((R)-hydroxy(phenyl)methyl)pyrrolidin-2-yl)methyl)-N-((5-(methoxymethyl)-1H-pyrazol-3-yl)methyl)-N-methylbenzamide] | 15 nM | 102% | 5.5 fold
Cc1nnc(-c2cncc(CN(C)C(=O)c3ccc(C[C@@H]4CC[C@H]([C@H](O)c5ccc(Cl)nc5)N4)cc3)c2)o1 [Example 36-A, 4-(((2S,5R)-5-((R)-(6-chloropyridin-3-yl)(hydroxy)methyl)pyrrolidin-2-yl)methyl)-N-methyl-N-((5-(5-methyl-1,3,4-oxadiazol-2-yl)pyridin-3-yl)methyl)benzamide] | 14 nM | 92% | 
COc1c(CN(C)C(=O)c2ccc(C[C@@H]3CC[C@H]([C@H](O)c4ccc(Cl)nc4)N3)cc2)n[nH]c1C [Example 16-A, 4-(((2S,5R)-5-((R)-(6-chloropyridin-3-yl)(hydroxy)methyl)pyrrolidin-2-yl)methyl)-N-((4-methoxy-5-methyl-1H-pyrazol-3-yl)methyl)-N-methylbenzamide] | 2 nM | 102% | 
Cc1cc(CN(C)C(=O)c2ccc(C[C@@H]3CC[C@H]([C@H](O)c4ccccc4)N3)cc2)n[nH]1 [Example 4-B, 4-(((2S,5R)-5-((R)-hydroxy(phenyl)methyl)pyrrolidin-2-yl)methyl)-N-methyl-N-((5-methyl-1H-pyrazol-3-yl)methyl)benzamide] | 14 nM | 108% | 2.6 fold
Cc1cc(CN(C)C(=O)c2ccc(C[C@@H]3CC[C@H]([C@H](O)c4ccc(Cl)nc4)N3)cc2)cnc1F [Example 39-A, 4-(((2S,5R)-5-((R)-(6-chloropyridin-3-yl)(hydroxy)methyl)pyrrolidin-2-yl)methyl)-N-((6-fluoro-5-methylpyridin-3-yl)methyl)-N-methylbenzamide] | 1 nM | 96% | 
CN(Cc1cncc(F)c1)C(=O)c1ccc(C[C@@H]2CC[C@H]([C@H](O)c3ccc(Cl)nc3)N2)cc1 [Example 38-A, 4-(((2S,5R)-5-((R)-(6-chloropyridin-3-yl)(hydroxy)methyl)pyrrolidin-2-yl)methyl)-N-((5-fluoropyridin-3-yl)methyl)-N-methylbenzamide] | 8 nM | 58% | 
CN(Cc1n[nH]c2c1CCCC2)C(=O)c1ccc(C[C@@H]2CC[C@H]([C@H](O)c3ccc(Cl)nc3)N2)cc1 [Example 14-A, 4-(((2S,5R)-5-((R)-(6-chloropyridin-3-yl)(hydroxy)methyl)pyrrolidin-2-yl)methyl)-N-methyl-N-((4,5,6,7-tetrahydro-1H-indazol-3-yl)methyl)benzamide] | 3 nM | 108% | 
Cc1cc(CN(C)C(=O)c2ccc(C[C@@H]3CC[C@H]([C@H](O)c4ccc(F)cc4)N3)cc2)n[nH]1 [Example 4-F, 4-(((2S,5R)-5-((R)-(4-fluorophenyl)(hydroxy)methyl)pyrrolidin-2-yl)methyl)-N-methyl-N-((5-methyl-1H-pyrazol-3-yl)methyl)benzamide] | 19 nM | 105% | 3.5 fold
CN(Cc1cc(C(F)(F)F)[nH]n1)C(=O)c1ccc(C[C@@H]2CC[C@H]([C@H](O)c3ccc(Cl)nc3)N2)cc1 [Example 10-A, 4-(((2S,5R)-5-((R)-(6-chloropyridin-3-yl)(hydroxy)methyl)pyrrolidin-2-yl)methyl)-N-methyl-N-((5-(trifluoromethyl)-1H-pyrazol-3-yl)methyl)benzamide] | 2 nM | 96% | 
Cc1cc(CN(C)C(=O)c2ccc(C[C@@H]3CC[C@H]([C@H](O)c4cccnc4)N3)cc2)cnc1F [Example 39-H] | 7 nM | 103% | 14.1 fold
CCC(c1cc(C)[nH]n1)N(C)C(=O)c1ccc(C[C@@H]2CC[C@H]([C@H](O)c3cccnc3)N2)cc1 (stereo partly drawn) [Example 5-H, 4-(((2S,5R)-5-((R)-hydroxy(pyridin-3-yl)methyl)pyrrolidin-2-yl)methyl)-N-methyl-N-(1-(5-methyl-1H-pyrazol-3-yl)propyl)benzamide] | 3 nM | 106% | 1.6 fold
Cc1cc(CN(C)C(=O)c2ccc(C[C@@H]3CC[C@H]([C@H](O)c4ccc(Cl)nc4)N3)cc2)n[nH]1 [Example 4-A, 4-(((2S,5R)-5-((R)-(6-chloropyridin-3-yl)(hydroxy)methyl)pyrrolidin-2-yl)methyl)-N-methyl-N-((5-methyl-1H-pyrazol-3-yl)methyl)benzamide] | 5 nM | 104% | 
CN(Cc1cccnc1F)C(=O)c1ccc(C[C@@H]2CC[C@H]([C@H](O)c3ccc(F)cc3)N2)cc1 [Example 26-F, 4-(((2S,5R)-5-((R)-(4-fluorophenyl)(hydroxy)methyl)pyrrolidin-2-yl)methyl)-N-((2-fluoropyridin-3-yl)methyl)-N-methylbenzamide] | 136 nM | 93% | 3.9 fold
CN(Cc1cncc(F)c1)C(=O)c1ccc(C[C@@H]2CC[C@H]([C@H](O)c3ccccc3)N2)cc1 [Example 38-B, N-((5-fluoropyridin-3-yl)methyl)-4-(((2S,5R)-5-((R)-hydroxy(phenyl)methyl)pyrrolidin-2-yl)methyl)-N-methylbenzamide] | 7 nM | 100% | 0.9 fold
Cc1cc(CN(C)C(=O)c2ccc(C[C@@H]3CC[C@H]([C@H](O)c4ccc(F)nc4)N3)cc2)n[nH]1 [Example 4-Q, 4-(((2S,5R)-5-((R)-(6-fluoropyridin-3-yl)(hydroxy)methyl)pyrrolidin-2-yl)methyl)-N-methyl-N-((5-methyl-1H-pyrazol-3-yl)methyl)benzamide] | 78 nM | 106% | 14.4 fold
CN(Cc1cccc(=O)[nH]1)C(=O)c1ccc(C[C@@H]2CC[C@H]([C@H](O)c3ccc(Cl)nc3)N2)cc1 [Example 20-A, 4-(((2S,5R)-5-((R)-(6-chloropyridin-3-yl)(hydroxy)methyl)pyrrolidin-2-yl)methyl)-N-methyl-N-((6-oxo-1,6-dihydropyridin-2-yl)methyl)benzamide] | 5 nM | 108% | 
CN(Cc1cccc(=O)[nH]1)C(=O)c1ccc(C[C@@H]2CC[C@H]([C@H](O)c3ccccc3)N2)cc1 [Example 20-B, 4-(((2S,5R)-5-((R)-hydroxy(phenyl)methyl)pyrrolidin-2-yl)methyl)-N-methyl-N-((6-oxo-1,6-dihydropyridin-2-yl)methyl)benzamide] | 9 nM | 103% | 2.1 fold
Cc1n[nH]c(CN(C)C(=O)c2ccc(C[C@@H]3CC[C@H]([C@H](O)c4ccccc4)N3)cc2)c1Cl [Example 17-B, N-((4-chloro-5-methyl-1H-pyrazol-3-yl)methyl)-4-(((2S,5R)-5-((R)-hydroxy(phenyl)methyl)pyrrolidin-2-yl)methyl)-N-methylbenzamide] | 17 nM | 112% | 4.5 fold
CC(c1cnccn1)N(C)C(=O)c1ccc(C[C@@H]2CC[C@H]([C@H](O)c3ccc(F)cc3)N2)cc1 (stereo partly drawn) [Example 41-F, 4-(((2S,5R)-5-((R)-(4-fluorophenyl)(hydroxy)methyl)pyrrolidin-2-yl)methyl)-N-methyl-N-(1-(pyrazin-2-yl)ethyl)benzamide] | 6 nM | 83% | 3.5 fold
CN(Cc1cnccn1)C(=O)c1ccc(C[C@@H]2CC[C@H]([C@H](O)c3cncc(F)c3)N2)cc1 [Example 40-R, 4-(((2S,5R)-5-((R)-(5-fluoropyridin-3-yl)(hydroxy)methyl)pyrrolidin-2-yl)methyl)-N-methyl-N-(pyrazin-2-ylmethyl)benzamide] | 373 nM | 87% | 32.0 fold
Cc1nnc(-c2cncc(CN(C)C(=O)c3ccc(C[C@@H]4CC[C@H]([C@H](O)c5ccccc5)N4)cc3)c2)o1 [Example 36-B, 4-(((2S,5R)-5-((R)-hydroxy(phenyl)methyl)pyrrolidin-2-yl)methyl)-N-methyl-N-((5-(5-methyl-1,3,4-oxadiazol-2-yl)pyridin-3-yl)methyl)benzamide] | 59 nM | 101% | 4.3 fold
COc1ccc(CN(C)C(=O)c2ccc(C[C@@H]3CC[C@H]([C@H](O)c4ccc(Cl)nc4)N3)cc2)cn1 [Example 29-A, 4-(((2S,5R)-5-((R)-(6-chloropyridin-3-yl)(hydroxy)methyl)pyrrolidin-2-yl)methyl)-N-((6-methoxypyridin-3-yl)methyl)-N-methylbenzamide] | 17 nM | 94% | 
CN(Cc1cc(C2CC2)[nH]n1)C(=O)c1ccc(C[C@@H]2CC[C@H]([C@H](O)c3ccc(Cl)nc3)N2)cc1 [Example 8-A, 4-(((2S,5R)-5-((R)-(6-chloropyridin-3-yl)(hydroxy)methyl)pyrrolidin-2-yl)methyl)-N-((5-cyclopropyl-1H-pyrazol-3-yl)methyl)-N-methylbenzamide] | 20 nM | 103% | 
